Measured values taken from the METLIN SMRT retention time set (Domingo-Almenara et al. 2019).

Assay: gradient 5% acetonitrile 3 min, to 50% in 2 min, to 85% in 15 min, held 3 min, 100 µL/min
Conditions: column: Zorbax Extend-C18 2.1 x 50 mm; eluents: water / acetonitrile, 0.1% formic acid
Outline: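 Retention times come from adduct peaks that were picked computationally and then checked by hand. The standards, pure and pooled in mixtures of ~100 molecules, were run on a Zorbax Extend-C18 column (2.1 × 50 mm, 1.8 μm) at 100 μL/min with water and acetonitrile, each with 0.1% formic acid. Detection was by quadrupole time-of-flight mass spectrometry in positive and negative ionization mode, with a dead volume of 40 μL and a dwell volume of 900 μL.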

Row | RP-LC retention time [s] | SMILES
1 | 770 | COc1cccc(C(=O)N2CCN(S(=O)(=O)c3cc4c5c(c3)CCC(=O)N5CCC4)CC2)c1
2 | 835 | Cn1c(=O)sc2cc(S(=O)(=O)N3CCC(C(=O)Nc4ccccc4)CC3)ccc21
3 | 782 | COc1ccccc1CC(=O)Nc1cccn2c(C3CCC3)nnc12
4 | 784 | CCOC(=O)c1c(CN2CCOCC2)n(C)c2cc(-c3cccnc3)c3c(c12)CN(C)CO3
5 | 673 | COCCN1C(=O)CCc2cc(NC(=O)C3CCC3)ccc21
6 | 791 | Cc1cc(C(=O)N2CCCn3nc(-c4cccs4)cc3C2)no1
7 | 742 | CCCn1c(-c2cccc(C(=O)NCc3ccco3)c2)nc2cccnc21
8 | 884 | Cn1nc(-c2nnc(-c3ccccc3)o2)c2c1CCN(S(=O)(=O)c1cccc(C#N)c1)C2
9 | 879 | CCc1noc(NC(C)=O)c1-c1ccc(C)c(S(=O)(=O)N2CCCCC2)c1
10 | 1280 | Cc1ccc(-c2noc(-c3cccc(S(=O)(=O)N4CCCC4)c3)n2)cc1
11 | 1010 | CC(=O)Nc1cccc(-c2nc(-c3ccc4c(c3)nnn4C3CCCC3)no2)c1
12 | 736 | COc1ccc(C(=O)N2CCN(c3ccc(-c4nc(C)cs4)cn3)CC2)cc1OC
13 | 681 | O=C(CCc1cn(-c2ccccc2)nc1-c1ccc2c(c1)OCO2)NCCCN1CCOCC1
14 | 1060 | O=C(CCC1CCCC1)N1CCc2c([nH]c3ccccc23)C1c1ccc(Cl)cc1 (stereo unspecified)
15 | 705 | CCn1c(C(=O)NCCCN2CCOCC2)cc2c(-c3cccs3)nn(-c3ccccc3)c21
16 | 926 | COc1ccc(-c2ccc3nc(N4CCC(C(=O)NC(C)C)CC4)sc3n2)cc1
17 | 780 | COc1cccc(NC(=O)N2CCC3(CC2)NC(=O)c2ccc(Cl)cc2N3C)c1
18 | 652 | O=C(NCc1cccc(F)c1)N1CCCC(Cn2cnc3cccnc32)C1 (stereo unspecified)
19 | 748 | Cn1nc(C(=O)N2CCN3CCS(=O)(=O)N(C4CC4)C(=O)C3C2)c2ccccc21 (stereo unspecified)
20 | 621 | O=C(NCCN1CCOCC1)C1CCN(Cc2cc3ccccc3n2Cc2ccccc2Cl)CC1

Row | RP-LC retention time [s] | SMILES
21 | 925 | Cc1cc(C)cc(NC(=O)Cn2c(=O)nc(N3CCC(C)CC3)c3ccccc32)c1
22 | 695 | Cn1cnc(S(=O)(=O)N2CCC(C(=O)NCc3ccccc3Cl)CC2)c1
23 | 664 | Cc1cccc2nc(-c3ccc(N4CCOCC4)cc3)c(Nc3ccc4c(c3)OCCO4)n12
24 | 630 | CN(CCNC(=O)c1ccc2c(c1)NC(=O)C1CCCCN21)C1CCCCC1 (stereo unspecified)
25 | 599 | CN(CCNC(=O)c1ccc(CN2C(=O)CCn3nccc32)cc1)C1CCCCC1
26 | 742 | CCN1c2ccccc2C(=O)NC12CCN(C(=O)c1cccc(F)c1)CC2
27 | 625 | COCCCNC(=O)C1CCCN(c2ncnc3c2nc2n3CCCCC2)C1 (stereo unspecified)
28 | 878 | CC1CCN(S(=O)(=O)c2cccn(CC(=O)NCCC3=CCCCC3)c2=O)CC1
29 | 506 | Cc1nc([C@@H]2CN(C(=O)CCc3nc4ccccc4[nH]3)C[C@H]2C(N)=O)n[nH]1
30 | 823 | Cc1nc(-c2ccc(N3CCN(C(=O)c4cccs4)CC3)nc2)sc1C
31 | 865 | Cc1ccc(Cl)c(NC(=O)C2CCc3nc(N4CCOCC4)ncc3C2)c1 (stereo unspecified)
32 | 744 | Cn1nc(-c2nc(C3CC3)no2)c2c1CCN(C(=O)c1ccco1)C2
33 | 692 | CC1=C(c2ccc(C)c(C)c2)S(=O)(=O)N=C1N1CCCN(C(=O)c2ccncc2)CC1
34 | 674 | CCOc1ccc(NC(=O)C2CCCN(c3nnc4ccccn34)C2)cc1 (stereo unspecified)
35 | 883 | CN(C1CCCCC1)S(=O)(=O)c1ccc(NC(=O)c2ccco2)cc1
36 | 1010 | COc1ccc(Cl)cc1NC(=O)NC1CCN(c2nc3ccccc3n(C)c2=O)CC1
37 | 737 | CC(C)N1CC(c2nc(-c3ccccc3)no2)C2(CCCC2)C1 (stereo unspecified)
38 | 903 | O=c1n(Cc2cc(F)cc(F)c2)nc2c(S(=O)(=O)N3CCCCC3)cccn12
39 | 630 | O=C(Cn1c(=O)oc2cc(Cl)ccc21)N1CCN(c2ccccn2)CC1

Continued, compound first:

Row | SMILES | RP-LC retention time [s]
40 | Cc1ccc(NC(=O)Cn2nc(C)cc2C(=O)Nc2ccc3c(c2)OCO3)cc1 | 866
41 | CCN1CCN(CCCNC(=O)c2cc3sccc3n2C)CC1 | 569
42 | CC(C)(C)c1cc(C(N)=O)n[nH]1 | 602
43 | O=C(Nc1cccs1)Nc1ccccc1NC(=O)c1ccco1 | 716
44 | CCn1c(=O)c(=O)n(CC(=O)NCc2ccc(C)o2)c2cccnc21 | 688
45 | COCCC(=O)Nc1ccc2c(c1)CCC(=O)N2C | 609
46 | COc1cc2c(cc1OC)C1C(C(=O)NCCCN3CCN(C)CC3)c3ccccc3C(=O)N1CC2 (stereo unspecified) | 547
47 | CCn1ccc2c(cc(C(=O)Nc3ccc(F)cc3Cl)n2C)c1=O | 776
48 | O=C(NCC1CCN(C(=O)Nc2ccc(F)cc2)CC1)c1ccccn1 | 674
49 | CCCN(CC1CCOC1)C(=O)c1cc(C)cc(C)c1 (stereo unspecified) | 868
50 | COCCN1CC2(CCN(S(=O)(=O)c3cccc(Cl)c3)CC2)C1c1ccccc1 (stereo unspecified) | 730
51 | CCOC(=O)c1cc(NC(=O)Nc2cccc(OC)c2)c(C)nc1C | 701
52 | Cc1c(C)n(C)c2ccc(C(=O)NCC(C)C)cc12 | 909
53 | COc1ccc(F)cc1S(=O)(=O)N1CCC2(CC1)c1nccn1CCN2C | 564
54 | CC(NC(=O)C1=C2CCCN2c2ccc(F)cc2S1(=O)=O)c1ccc(F)cc1 (stereo unspecified) | 935
55 | CCC(=O)Nc1ccc(CCc2nc3ccc(C(=O)NCCOC)cc3[nH]2)cc1 | 567
56 | Cc1ccc(CNS(=O)(=O)c2cc(-c3nc(C(C)(C)C)cs3)cs2)cc1C | 1350
57 | CSc1ccc(CNC(=O)Cn2c(=O)c3cccn3c3ccc(F)cc32)cc1 | 861
58 | COc1ccc(OC)c(NC(=O)c2ccc(S(=O)(=O)NC3CC3)cc2)c1 | 778
59 | O=C(Nc1ccc(C(F)(F)F)cc1)NC1CCN(c2ccccc2)C1=O (stereo unspecified) | 912
60 | Cc1nnc([C@@H]2CC(F)(F)CN2C(=O)Cc2c[nH]c3ccccc23)o1 | 723
61 | O=C(Nc1ccc(NC(=O)N2CCCC(C(=O)NCC3CC3)C2)cc1)NC1CCCC1 (stereo unspecified) | 692
62 | COc1ccc(NC(=O)c2cccn2-c2cccnc2)cc1OC | 678
63 | Cc1cccc(NC(=O)CC2COc3ccccc3NC2=O)c1C (stereo unspecified) | 736
64 | COC(=O)c1cnc2nc(C)ccc2c1Nc1ccc(Cl)cc1 | 705
65 | CCn1cc(CC(=O)NCc2ccc(F)cc2F)c2cccnc21 | 723

Row | SMILES | RP-LC retention time [s]
66 | COc1ccc(CNC(=O)COc2nc(C)nc3ccccc23)cc1 | 678
67 | Cc1ccn2cc(C(=O)NCc3ccc(OC(C)C)cc3)nc2c1 | 713
68 | O=C(Cc1cccs1)Nc1cccc(OCc2nnc(-c3ccccc3)o2)c1 | 905
69 | O=C(NCCn1ccc2ccccc21)C(=O)c1c[nH]c2ccccc12 | 899
70 | CSc1nc2ccc(NC(=O)c3cccs3)cc2s1 | 837
71 | Cn1cc(C(=O)NCc2ccccn2)c2cccnc21 | 552
72 | COc1ccc(CC(C)(O)CNC(=O)C2CC2)cc1 (stereo unspecified) | 631
73 | Cc1ccccc1N1CCN(c2nccn3nc(-c4ccccc4)cc23)CC1 | 1300
74 | CN(C)C(=O)C1CCN(S(=O)(=O)Cc2ccc(Cl)cc2)CC1 | 746
75 | CCn1ccc2sc(C)c(C(=O)NCc3ccccc3Cl)c2c1=O | 879
76 | Cc1ccc(NC(=O)C(C)C2CCN(C(=O)Nc3ccccc3)CC2)cc1 (stereo unspecified) | 860
77 | CCc1cccc(C)c1NC(=O)Cn1c(=O)n(-c2ccc(F)cc2)c(=O)c2c1cc(C)n2C | 850
78 | CCOC(=O)c1sc(NC(=O)c2ccc(Br)cc2F)nc1C | 986
79 | CSc1ccc(CNC(=O)Cc2nnc(-c3ccc4ncccc4c3)o2)cc1 | 716
80 | CCN1C=C(C(=O)OCc2ccccc2Cl)C(C)=NS1(=O)=O | 1010
81 | Nc1nc(OCc2ccccc2)c2[nH]cnc2n1 | 654
82 | CCOc1ccc(S(=O)(=O)N2CCCC(C(=O)NC3CCCCCC3)C2)cc1 (stereo unspecified) | 1060
83 | NC1(Cc2ccc(Cl)cc2)CCN(c2ncnc3[nH]ccc23)CC1 | 602
84 | CC(C)n1cnc(S(=O)(=O)N2CCC(C(=O)NC3CCCCCCC3)CC2)c1 | 827
85 | Cc1ccc(NC(=O)N2CCCC2C(=O)NC(C)C)cc1 (stereo unspecified) | 694
86 | O=C1CC(C(F)(F)F)c2c(c(C(=O)O)cn2-c2ccc(F)cc2)N1 (stereo unspecified) | 727
87 | CCn1ccc2c(cc(C(=O)Nc3ccc(OC)c(Cl)c3)n2C)c1=O | 1330
88 | O=S(=O)(c1ccc2nncn2c1)N(Cc1ccccc1F)c1cc(F)cc(F)c1 | 874
89 | CCOC(=O)c1c(C)[nH]c(C)c1S(=O)(=O)N1CCC(C(=O)Nc2ccc(C)c(N(C)C)c2)CC1 | 616
90 | CCN(CC)C(=O)c1ccc(-c2nc3cc(NS(=O)(=O)c4ccccc4C)ccc3n2C)cc1 | 694
91 | CCN(CC)C(=O)c1ccc2c(c1)nnn2CCNC(=O)Nc1ccc(Br)c(C)c1 | 785
